Like-named read-outs stand apart in the source and are kept apart here.
Key:
[1] = system: P. falciparum Dd2; test: SYBR green I asexual blood stage proliferation assay (96 h); assay type: cell-based, Plasmodium falciparum; settings: Plasmodium falciparum, DD2, 11-pt dose response, 96hr
[2] = system: P. falciparum Dd2 (PfLuc) line expressing firefly luciferase, asexual blood stage; test: microbe, parasite or virus in culture; assay type: cell-based, Plasmodium falciparum; settings: Plasmodium falciparum
[3] = Sybr Green I, read-out: CDD P. falciparum Sybr Green I ABS 11-pt Reconfirmation Dose Response (96hr): IC50
[4] = Sybr Green I, read-out: CDD P. falciparum Sybr Green I ABS 11-pt Reconfirmation Dose Response (96hr): Maximum inhibition (%)
[5] = DD2, read-out: CDD P. falciparum Luciferase ABS 11-pt Reconfirmation Dose Response (48hr): IC50 (μM), 11-pt dose response, 48hr
[6] = DD2, 8-pt dose response, 96hr, read-out: CDD P. falciparum Luciferase ABS 8-pt Reconfirmation Dose Response (96hr): IC50
[7] = DD2, 8-pt dose response, 96hr, read-out: CDD P. falciparum Luciferase ABS 8-pt Reconfirmation Dose Response (96hr): Maximum inhibition (%)
[8] = DD2, 11-pt dose response, 48hr, read-out: CDD P. falciparum Luciferase ABS 11-pt Reconfirmation Dose Response (48hr): Maximum inhibition (%)
[9] = DD2, 11-pt dose response, 96hr, read-out: CDD P. falciparum Luciferase ABS 11-pt Reconfirmation Dose Response (96hr): IC50
[10] = DD2, 11-pt dose response, 96hr, read-out: CDD P. falciparum Luciferase ABS 11-pt Reconfirmation Dose Response (96hr): Maximum inhibition (%)
[11] = read-out: P. falciparum Sybr Green I ABS 11-pt Reconfirmation Dose Response (96hr): IC50
[12] = read-out: P. falciparum Sybr Green I ABS 11-pt Reconfirmation Dose Response (96hr): Maximum inhibition (%)
[13] = DD2, read-out: P. falciparum Luciferase ABS 11-pt Reconfirmation Dose Response (48hr): IC50, 11-pt dose response, 48hr
[14] = DD2, 8-pt dose response, 96hr, read-out: P. falciparum Luciferase ABS 8-pt Reconfirmation Dose Response (96hr): IC50
[15] = DD2, 8-pt dose response, 96hr, read-out: P. falciparum Luciferase ABS 8-pt Reconfirmation Dose Response (96hr): Maximum inhibition (%)
[16] = DD2, 11-pt dose response, 48hr, read-out: P. falciparum Luciferase ABS 11-pt Reconfirmation Dose Response (48hr): Maximum inhibition (%)
[17] = DD2, 11-pt dose response, 96hr, read-out: P. falciparum Luciferase ABS 11-pt Reconfirmation Dose Response (96hr): IC50
[18] = DD2, 11-pt dose response, 96hr, read-out: P. falciparum Luciferase ABS 11-pt Reconfirmation Dose Response (96hr): Maximum inhibition (%)

Row | SMILES | IC50 [1, 3] [nM] | Emax [1, 4] [%] | IC50 [2, 5] [µM] | IC50 [2, 6] [µM] | Emax [2, 7] [%] | Emax [2, 8] [%] | IC50 [2, 9] [µM] | Emax [2, 10] [%] | IC50 [1, 11] [nM] | Emax [1, 12] [%] | IC50 [2, 13] [µM] | IC50 [2, 14] [µM] | Emax [2, 15] [%] | Emax [2, 16] [%] | IC50 [2, 17] [µM] | Emax [2, 18] [%]
1 | CC(=O)N(c1ccc(F)cc1)c1nc(CN2CCCC2C(C)C)cs1 (stereo not drawn) [DDD01075305] | > 4160 | 62.8 | 6.08 | 0.65 | 84.5 | 57.5 | 2.69 | 92.1 |  |  |  |  |  |  |  | 
2 | COc1ccccc1C1(CNCc2cccc(O)c2)CCOCC1 [DDD01075721] | > 4160 | 68.7 | 10.3 | 0.85 | 85.5 | 67.7 | 2.2 | 90.3 |  |  |  |  |  |  |  | 
3 | Cc1ccccc1CNCC(O)c1ccc(OC(C)C)cc1 (stereo not drawn) [DDD01076008] | 3770 |  | 3.39 | 0.89 |  | 93.9 | 1.47 | 99.7 |  |  |  |  |  |  |  | 
4 | Cc1cc(N2CCC(NC(C)Cc3ccsc3)CC2)nc(C)n1 (stereo not drawn) [DDD01076128] |  |  |  |  |  |  |  |  | 7780 | 72.7 | 2.25 | 1.19 | 89.6 | 81.4 | 1.09 | 96.6
5 | COCC(O)CN(C)c1ccnc2cc(Br)ccc12 (stereo not drawn) [DDD01076306] | 2430 | 95.6 | 1.81 | 0.99 |  | 97.7 | 1.51 | 99.9 |  |  |  |  |  |  |  | 
6 | Cc1cc(NC(=O)NC2CCN(C(C)C)CC2)c2ncccc2c1 [DDD01076635] |  |  |  |  |  |  |  |  | 5300 | 53.2 | > 12.5 | 2.21 |  | 47.1 | 5.47 | 86.3
7 | CN1CCN(c2ccccc2NC(=O)NCCc2ccccc2)CC1 [DDD01076697] |  |  |  |  |  |  |  |  | > 12500 | 52.5 | > 12.5 | 1.14 | 82.8 | 65.5 | > 1.39 | 89.4
8 | Brc1cccc(C2(CNCc3cc[nH]c3)CCOCC2)c1 [DDD01076928] | 5620 |  | 1.56 | 0.82 | 85.7 | 86.3 | 0.694 | 99.3 |  |  |  |  |  |  |  | 
9 | Brc1ccc(C2(CNCc3cc[nH]c3)CCOCC2)cc1 [DDD01076992] | 3080 | 54 | 0.715 | 0.62 | 82.1 | 95.6 | 0.407 | 99.6 |  |  |  |  |  |  |  | 
10 | COCCC1(CNC(=O)Nc2ccnc(C)c2)CCCC1 [DDD01077091] | > 12500 | 47.9 | > 12.5 | 1.04 | 79.6 | 48.9 | > 1.39 | 82 |  |  |  |  |  |  |  | 
11 | CN1CCN(S(=O)(=O)c2ccc(Cl)c(Cl)c2)c2cnccc21 [DDD01077309] | 5690 | 82.8 | 6.77 | 0.57 | 92.2 | 78.7 | 1.46 | 95.5 |  |  |  |  |  |  |  | 
12 | CC(C)C(CNCc1cccc2c1OCO2)N1CCOCC1 (stereo not drawn) [DDD01077478] | 1890 | 62.1 | > 12.5 | 0.56 | 86.4 | 52.1 | 2.57 | 85.2 |  |  |  |  |  |  |  | 
13 | Cc1n[nH]cc1CNC1(c2ccc(F)cc2)CCCC1 [DDD01077733] | > 1390 | 59 | > 12.5 | 0.59 | 86.6 | 59 | 2.1 | 87 |  |  |  |  |  |  |  | 
14 | CC(NCCN1CCC(N(C)C)CC1)c1ccc(Cl)s1 (stereo not drawn) [DDD01077862] | 2870 | 89 | 4.33 | 0.92 | 87.7 | 83.2 | 1.35 | 97.3 |  |  |  |  |  |  |  | 
15 | NC(=O)CN1CCC(Nc2ccnc3ccc(Cl)cc23)CC1 [DDD01078433] | 1020 | 98.2 | 1.98 | 0.96 |  | 99.5 | 1.05 | 100 |  |  |  |  |  |  |  | 
16 | CS(=O)(=O)CCCNC1(c2cccc(Cl)c2)CCCC1 [DDD01078792] |  |  |  |  |  |  |  |  | > 4160 | 73.6 | > 12.5 | 1.66 | 85 | 68.8 | 3.02 | 88

Row | SMILES | IC50 [1, 3] [nM] | Emax [1, 4] [%] | IC50 [2, 5] [µM] | IC50 [2, 6] [µM] | Emax [2, 7] [%] | Emax [2, 8] [%] | IC50 [2, 9] [µM] | Emax [2, 10] [%] | IC50 [1, 11] [nM] | Emax [1, 12] [%] | IC50 [2, 13] [µM] | IC50 [2, 14] [µM] | Emax [2, 15] [%] | Emax [2, 16] [%] | IC50 [2, 17] [µM] | Emax [2, 18] [%]
17 | Cc1cccc(C2(NCCCS(C)(=O)=O)CCCC2)c1 [DDD01078804] | 6570 | 74.2 | 12.1 | 0.66 | 85 | 56.6 | 1.93 | 85.9 |  |  |  |  |  |  |  | 
18 | Cc1cn2c(n1)C(CNCc1ccc(C)s1)CCC2 (stereo not drawn) [DDD01079169] | 2250 | 83.8 | 1.64 | 0.63 | 93.4 | 93.3 | 0.471 | 100 |  |  |  |  |  |  |  | 
19 | O=C(CN1CCCC(c2ccn[nH]2)C1)Nc1nc2c(s1)CCC2 (stereo not drawn) [DDD01079497] | 192 | 73.2 | 0.618 | 0.22 | 90.5 |  | 0.451 | 97.6 |  |  |  |  |  |  |  | 
20 | Cc1cc(C2CCCN(CC(=O)Nc3nc4c(s3)CCC4)C2)n[nH]1 (stereo not drawn) [DDD01079504] | 179 | 71.3 | 0.456 | 0.28 | 81.5 | 84.9 | 0.388 | 97.8 |  |  |  |  |  |  |  | 
21 | Cc1cc(Br)cnc1NCCN1CCC(N(C)C)CC1 [DDD01079597] | 3190 | 92.7 | 7.01 | 0.51 | 92.4 | 87.3 | 1.15 | 99.5 |  |  |  |  |  |  |  | 
22 | COc1cccc(CNC(CN2CCN(C)CC2)c2ccccc2)c1 (stereo not drawn) [DDD01079897] | 1650 | 94.5 | 2.58 | 0.38 | 91 | 83.2 | 0.79 | 98.1 |  |  |  |  |  |  |  | 
23 | Cc1ccc(CNC(CN2CCN(C)CC2)c2ccccc2)cc1 (stereo not drawn) [DDD01079898] | 1360 | 95.9 | 4.31 | 0.26 | 91.3 | 88.2 | 1.21 | 98.8 |  |  |  |  |  |  |  | 
24 | Cc1cccc(CNC(CN2CCN(C)CC2)c2ccccc2)c1 (stereo not drawn) [DDD01079901] | 449 | 98.3 | 2.73 | 0.24 | 91.5 | 89.2 | 0.53 | 99 |  |  |  |  |  |  |  | 
25 | NCC1(c2cccc(Br)c2)CCOCC1 [DDD01079955] | > 4160 | 76.8 | 4.79 | 0.84 | 87.3 | 58.8 | 1.63 | 85.9 |  |  |  |  |  |  |  | 
26 | COCCCN1CCCN(C(C)C(=O)Nc2cccc(I)c2)CC1 (stereo not drawn) [DDD01080015] | 10600 | 77.7 | 2.64 | 0.87 | 92 | 71.5 | 1.94 | 94.8 |  |  |  |  |  |  |  | 
27 | c1cnn(C[C@@H]2C[C@@H]3CN(CC4CC4)CC[C@@H]3N2c2nccs2)c1 [DDD01081619] |  |  |  |  |  |  |  |  | 2700 | 73.6 | 2.56 | 1.48 | 94.2 |  | 1.87 | 99.5
28 | Cc1ccc(CNC2CC3(CCN(CCO)CC3)c3ccccc32)s1 (stereo not drawn) [DDD01082017] | 2900 | 89.2 | 3.82 | 0.41 | 91 | 80.4 | 1.07 | 98 |  |  |  |  |  |  |  | 
29 | COCCN1CCC2(CC1)CC(NCc1ccc(C)s1)c1ccccc12 (stereo not drawn) [DDD01082023] | 2420 | 82.4 | 7.58 | 0.63 | 90 |  | 1.55 | 96.4 |  |  |  |  |  |  |  | 
30 | Cc1cc(C)cc(CN2C[C@H]3COC[C@H](N4CCN(C)CC4)[C@H]3C2)c1 [DDD01083756] | 1080 |  | 2.44 | 0.23 |  | 79.9 | 0.791 | 97.2 |  |  |  |  |  |  |  | 
31 | CC(C)N(C)Cc1cnc2n1CCN(C(=O)NC1CCCC1)C2 [DDD01085014] | 3090 | 52.8 | > 12.5 | 0.4 | 87.1 | 50.3 | 0.478 | 91 |  |  |  |  |  |  |  | 

From paper PMC7155171, “Probing the Open Global Health Chemical Diversity Library for Multistage-Active Starting Points for Next-Generation Antimalarials” (ACS Infectious Diseases, 2020)
